For 1 compound, IC50 results are on record in BindingDB's records for patent US10626103 (Celgene Quanticel Research, 2020).

The test concerns the target Lysine-specific histone demethylase 1A (Homo sapiens, UniProt O60341). In words: In Vitro Enzyme Inhibition Assay - LSD-1. As to the method:
The enzymatic assay of LSD1 activity is based on Time Resolved-Fluorescence Resonance Energy Transfer (TR-FRET) detection. […] Plates were read by EnVision Multilabel Reader in TR-FRET mode (excitation at 320 nm, emission at 615 nm and 665 nm) after 1 hour incubation at room temperature.

For the compound `COc1ccc(-c2c(-c3ccc(C#N)c(F)c3)cc(C(=O)N3CCC[C@@H](N)C3)n2CCCC(=O)O)cc1` [US10626103, Example 41], the 50% inhibitory concentration (IC50) was below 0.1 µM.
